{
  "source": "patent US20210198258A1",
  "about": "“INTEGRIN ANTAGONISTS” (Oxurion NV, priority 2018, published 2021)",
  "key": {"[1]": {"system": "human umbilical vein endothelial cells (HUVECs)", "assay": "ORIS Cell Migration Assay", "type": "cell-based", "conditions": "HUVEC, fibronectin-coated plates, 24 h migration", "description": "Endothelial cell wound healing is mediated by endothelial cell migration and proliferation, both critical components of the angiogenesis process, and is routinely used as a surrogate model for in vitro angiogenic potential. The ORIS™ Cell Migration Assay was used with human umbilical vein endothelial cells (HUVECs).\nHUVEC cells (SCCE-001, Cat no. 1000519, Merck Chemicals) were cultured in T175 flasks (Cat no 353112, falcon) in EndoGro Growth Medium (SCME-003, Merck Chemicals) and split when they reached 90-100% confluence.\nFor the assay, cells were used at passage 2 to 4 after thawing and at 80-90% confluency. At the beginning of the day, the fibronectin-coated Oris™ Cell Migration Assay Plates (Cat no #CMAFN.I01, AMS Biotechnology) were removed from refrigeration and placed at RT for 1 h. […]\nJust prior to the end of the incubation, a 4 μg/mL calcein AM (Cat no 354217, Beckton Dickinson) solution was prepared in pre-warmed HBSS (Cat no 14025, Gibco). […] After incubation the fluorescence was read at 494 nm excitation and 517 nm emission wavelengths using the Flexstation and the SofiMax Pro 5.4.5 software (Molecular Devices). The fluorescence was read from the bottom of the plates with the lid on to keep them sterile. The masks were then removed and pictures were taken with the Axiovert fluorescence microscope (Zeiss) using reflected light, GFP and a 2.5× objective."}, "[2]": {"system": "RPE-choroid sclera explants", "conditions": "read-out: IC50 vessel outgrowth; murine choroid explants in fibrin gel, 3 to 4 days", "from_the_text": "The assay is based on a murine microvascular angiogenesis explant model, which closely mimics in viva choroidal angiogenesis. […] The choroidal explant model or briefly EMCA model allows for rapid evaluation of new anti-angiogenic therapeutics, with the additional benefit of excluding the potential lack of exposure often encountered when testing small molecules in animal eyes. RPE-choroid sclera explants (hereinafter referred to as choroid explants) are embedded in a three-dimensional fibrinogen/fibrin gel. Addition of serum-containing medium induces extensive endothelial cell sprout outgrowth into the matrix after 3 to 4 days in culture.\nAll experiments were performed using 4 to 5-weeks old male C57BL/6J mice (Charles River Laboratories France), housed under standard laboratory conditions according to a normal day/night rhythm with ad libitum access to food and water. […]\nAfter 3 to 4 days, bright field pictures were taken at 2.5× magnification with the Axio Vert.A1 inverted microscope (Zeiss) using ZEN lite 2012 microscope software (Zeiss). […] Further analysis was performed in Microsoft Excel, where the sprouting area of endothelial organotypic culture was quantified by subtracting the area of the tissue explant from the total area occupied by the sprouts."}},
  "data": [
    {"smiles": "CC(C)[C@H]1C(=O)N[C@@H](CCCN=C(N)N)C(=O)NCC(=O)N[C@@H](CC(=O)O)C(=O)N[C@H](Cc2ccccc2)C(=O)N1C", "note": "[Cilengitide]", "values": [
      {"measurement": "IC50", "setting": "[1]", "value": 100, "unit": "µM"},
      {"measurement": "IC50", "setting": "[2]", "value": "~300", "unit": "µM"}
    ]}
  ]
}
